From BindingDB's records for doi:10.1124/jpet.102.047092 (Case Western Reserve University, 2003)

Columns and labels:
[1] = target: 5-hydroxytryptamine receptor 7 (Homo sapiens, UniProt P34969)
[2] = target: T1, Alpha-1B adrenergic receptor (Homo sapiens, UniProt P35368)
T1 sequence (P35368 whole entry): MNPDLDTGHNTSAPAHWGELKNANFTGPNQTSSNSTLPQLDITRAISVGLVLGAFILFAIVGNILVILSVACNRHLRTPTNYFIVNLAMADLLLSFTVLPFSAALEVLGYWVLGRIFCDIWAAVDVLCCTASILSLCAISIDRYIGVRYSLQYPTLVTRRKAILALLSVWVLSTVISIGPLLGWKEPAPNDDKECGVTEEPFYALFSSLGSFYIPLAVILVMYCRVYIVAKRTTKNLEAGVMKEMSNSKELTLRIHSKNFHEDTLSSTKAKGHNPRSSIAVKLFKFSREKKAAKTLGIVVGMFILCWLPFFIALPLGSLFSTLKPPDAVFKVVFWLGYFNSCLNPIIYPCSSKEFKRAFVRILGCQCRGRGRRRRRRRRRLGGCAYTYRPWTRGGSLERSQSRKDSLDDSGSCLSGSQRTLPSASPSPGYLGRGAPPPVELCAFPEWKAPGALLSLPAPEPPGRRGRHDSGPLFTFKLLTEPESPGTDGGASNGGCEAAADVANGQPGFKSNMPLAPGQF

Histamine H1 receptor = Histamine H1 receptor (Rattus norvegicus, UniProt P31390)
Chain of Histamine H1 receptor (P31390 whole entry): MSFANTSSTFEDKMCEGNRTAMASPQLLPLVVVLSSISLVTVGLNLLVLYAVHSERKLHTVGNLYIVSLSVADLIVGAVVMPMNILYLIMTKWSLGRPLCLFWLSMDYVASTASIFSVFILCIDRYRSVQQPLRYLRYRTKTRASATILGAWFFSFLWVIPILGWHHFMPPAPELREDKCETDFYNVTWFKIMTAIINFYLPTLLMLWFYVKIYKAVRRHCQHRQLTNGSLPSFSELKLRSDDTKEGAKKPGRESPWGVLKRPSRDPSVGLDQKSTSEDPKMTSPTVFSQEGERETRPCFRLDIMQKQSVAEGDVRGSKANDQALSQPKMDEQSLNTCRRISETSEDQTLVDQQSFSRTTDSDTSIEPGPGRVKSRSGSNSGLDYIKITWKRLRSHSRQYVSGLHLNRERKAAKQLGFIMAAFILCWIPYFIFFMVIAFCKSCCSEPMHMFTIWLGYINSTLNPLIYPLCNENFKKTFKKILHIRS

[3] = target: Sodium-dependent serotonin transporter (Homo sapiens, UniProt P31645)
[4] = target: T2, Muscarinic acetylcholine receptor M4 (Homo sapiens, UniProt P08173)
T2 sequence (P08173 whole entry): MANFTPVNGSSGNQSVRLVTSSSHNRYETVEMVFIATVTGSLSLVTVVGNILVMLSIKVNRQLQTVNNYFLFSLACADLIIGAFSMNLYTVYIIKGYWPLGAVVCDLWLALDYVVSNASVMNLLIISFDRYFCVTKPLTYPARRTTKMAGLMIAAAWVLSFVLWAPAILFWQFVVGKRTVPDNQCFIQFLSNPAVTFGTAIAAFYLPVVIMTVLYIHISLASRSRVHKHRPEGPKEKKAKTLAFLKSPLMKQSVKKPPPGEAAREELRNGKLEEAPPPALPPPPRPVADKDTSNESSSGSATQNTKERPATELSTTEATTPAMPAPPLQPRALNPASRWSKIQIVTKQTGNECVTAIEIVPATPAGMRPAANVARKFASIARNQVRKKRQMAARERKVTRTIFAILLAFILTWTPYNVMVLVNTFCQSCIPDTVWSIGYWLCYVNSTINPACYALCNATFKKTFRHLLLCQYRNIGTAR

[5] = target: 5-hydroxytryptamine receptor 2A (Rattus norvegicus, UniProt P14842)
Chain of 5-hydroxytryptamine receptor 2A (P14842 whole entry): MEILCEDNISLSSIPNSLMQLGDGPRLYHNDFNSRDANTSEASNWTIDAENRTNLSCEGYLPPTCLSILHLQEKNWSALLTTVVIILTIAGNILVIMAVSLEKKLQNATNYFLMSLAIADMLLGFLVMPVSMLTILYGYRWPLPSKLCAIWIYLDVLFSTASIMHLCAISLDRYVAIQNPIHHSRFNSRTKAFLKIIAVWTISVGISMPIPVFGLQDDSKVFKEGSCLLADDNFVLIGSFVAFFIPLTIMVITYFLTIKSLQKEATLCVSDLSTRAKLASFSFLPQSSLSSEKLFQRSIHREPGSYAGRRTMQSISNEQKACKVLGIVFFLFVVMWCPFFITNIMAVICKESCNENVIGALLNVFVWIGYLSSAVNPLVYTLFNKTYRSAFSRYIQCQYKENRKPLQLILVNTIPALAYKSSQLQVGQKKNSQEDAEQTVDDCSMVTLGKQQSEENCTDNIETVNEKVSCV

[6] = target: 5-hydroxytryptamine receptor 6 (Homo sapiens, UniProt P50406)
Chain of 5-hydroxytryptamine receptor 6 (P50406 whole entry): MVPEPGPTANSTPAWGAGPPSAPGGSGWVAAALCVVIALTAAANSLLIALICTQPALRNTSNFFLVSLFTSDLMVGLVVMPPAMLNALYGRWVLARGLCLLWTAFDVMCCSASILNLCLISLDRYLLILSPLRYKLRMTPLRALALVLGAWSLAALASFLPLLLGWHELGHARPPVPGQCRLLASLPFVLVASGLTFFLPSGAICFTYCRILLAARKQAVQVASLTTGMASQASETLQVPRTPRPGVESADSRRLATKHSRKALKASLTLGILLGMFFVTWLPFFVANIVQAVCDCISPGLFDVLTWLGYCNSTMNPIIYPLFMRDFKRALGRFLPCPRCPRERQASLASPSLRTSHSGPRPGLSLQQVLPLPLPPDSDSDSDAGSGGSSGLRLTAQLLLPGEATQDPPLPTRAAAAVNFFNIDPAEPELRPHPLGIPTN

D(4) dopamine receptor = target: T3, D(4) dopamine receptor (Rattus norvegicus, UniProt P30729)
T3 sequence (P30729 whole entry): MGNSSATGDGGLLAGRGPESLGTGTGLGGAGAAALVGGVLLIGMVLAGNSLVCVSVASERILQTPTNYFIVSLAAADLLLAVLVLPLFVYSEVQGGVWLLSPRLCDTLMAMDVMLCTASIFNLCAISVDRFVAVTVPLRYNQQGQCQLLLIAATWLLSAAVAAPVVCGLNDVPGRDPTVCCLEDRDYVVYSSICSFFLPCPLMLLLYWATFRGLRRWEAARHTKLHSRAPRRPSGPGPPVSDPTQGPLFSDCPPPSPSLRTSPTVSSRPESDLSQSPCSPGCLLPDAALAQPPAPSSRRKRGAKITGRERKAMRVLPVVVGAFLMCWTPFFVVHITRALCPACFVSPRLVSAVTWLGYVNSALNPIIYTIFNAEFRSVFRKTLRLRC

[7] = target: T4, Alpha-2B adrenergic receptor (Homo sapiens, UniProt P18089)
T4 sequence (P18089 whole entry): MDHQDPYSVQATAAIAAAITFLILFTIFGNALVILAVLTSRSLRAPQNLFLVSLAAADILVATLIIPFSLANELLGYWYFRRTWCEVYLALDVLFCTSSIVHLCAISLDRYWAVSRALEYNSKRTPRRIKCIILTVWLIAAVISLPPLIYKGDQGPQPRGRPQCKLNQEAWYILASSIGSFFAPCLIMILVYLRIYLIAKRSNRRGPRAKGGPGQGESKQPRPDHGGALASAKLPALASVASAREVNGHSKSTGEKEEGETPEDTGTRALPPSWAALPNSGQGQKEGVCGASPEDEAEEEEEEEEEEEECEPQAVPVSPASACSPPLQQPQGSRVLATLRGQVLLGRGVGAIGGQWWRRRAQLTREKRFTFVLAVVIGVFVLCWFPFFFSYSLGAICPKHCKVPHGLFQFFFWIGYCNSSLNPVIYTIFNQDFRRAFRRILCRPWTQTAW

[8] = target: Sodium-dependent noradrenaline transporter (Homo sapiens, UniProt P23975)
Chain of Sodium-dependent noradrenaline transporter (P23975 whole entry): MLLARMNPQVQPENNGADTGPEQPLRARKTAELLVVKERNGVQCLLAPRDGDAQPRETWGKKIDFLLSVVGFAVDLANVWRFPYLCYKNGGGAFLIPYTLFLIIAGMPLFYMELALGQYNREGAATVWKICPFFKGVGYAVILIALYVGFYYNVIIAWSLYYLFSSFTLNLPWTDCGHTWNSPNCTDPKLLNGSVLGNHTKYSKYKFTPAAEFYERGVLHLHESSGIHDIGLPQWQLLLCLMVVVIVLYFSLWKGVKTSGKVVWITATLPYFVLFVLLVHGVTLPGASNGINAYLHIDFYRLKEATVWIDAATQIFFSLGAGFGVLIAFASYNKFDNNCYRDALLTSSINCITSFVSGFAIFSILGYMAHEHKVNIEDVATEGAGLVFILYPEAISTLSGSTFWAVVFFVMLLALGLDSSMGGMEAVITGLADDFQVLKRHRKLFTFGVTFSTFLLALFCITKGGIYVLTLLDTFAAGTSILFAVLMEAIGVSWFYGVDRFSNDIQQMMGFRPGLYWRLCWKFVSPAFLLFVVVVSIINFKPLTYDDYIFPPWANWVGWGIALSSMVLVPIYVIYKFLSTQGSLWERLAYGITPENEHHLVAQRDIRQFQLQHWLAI

[9] = target: 5-hydroxytryptamine receptor 1D (Homo sapiens, UniProt P28221)
Histamine H4 receptor = Histamine H4 receptor (Homo sapiens, UniProt Q9H3N8)
[10] = target: Neuronal acetylcholine receptor subunit alpha-3 (Homo sapiens, UniProt P32297)
Chain of Neuronal acetylcholine receptor subunit alpha-3 (P32297 whole entry): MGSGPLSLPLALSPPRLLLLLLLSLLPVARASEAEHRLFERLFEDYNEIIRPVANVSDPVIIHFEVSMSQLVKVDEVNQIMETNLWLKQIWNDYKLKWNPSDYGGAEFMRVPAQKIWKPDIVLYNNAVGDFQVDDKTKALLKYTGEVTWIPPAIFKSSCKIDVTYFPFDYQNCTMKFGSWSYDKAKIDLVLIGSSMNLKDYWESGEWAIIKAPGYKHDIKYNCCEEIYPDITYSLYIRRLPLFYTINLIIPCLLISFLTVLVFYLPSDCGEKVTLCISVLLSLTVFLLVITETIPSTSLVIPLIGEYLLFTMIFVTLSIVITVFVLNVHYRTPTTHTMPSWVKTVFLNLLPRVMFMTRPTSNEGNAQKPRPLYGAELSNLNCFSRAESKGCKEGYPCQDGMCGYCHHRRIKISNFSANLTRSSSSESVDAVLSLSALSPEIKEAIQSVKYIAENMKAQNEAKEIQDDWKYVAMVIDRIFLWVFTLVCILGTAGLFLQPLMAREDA

Cannabinoid receptor 1 = Cannabinoid receptor 1 (Rattus norvegicus, UniProt P20272)
Histamine H2 receptor = Histamine H2 receptor (Homo sapiens, UniProt P25021)
Chain of Histamine H2 receptor (P25021 whole entry): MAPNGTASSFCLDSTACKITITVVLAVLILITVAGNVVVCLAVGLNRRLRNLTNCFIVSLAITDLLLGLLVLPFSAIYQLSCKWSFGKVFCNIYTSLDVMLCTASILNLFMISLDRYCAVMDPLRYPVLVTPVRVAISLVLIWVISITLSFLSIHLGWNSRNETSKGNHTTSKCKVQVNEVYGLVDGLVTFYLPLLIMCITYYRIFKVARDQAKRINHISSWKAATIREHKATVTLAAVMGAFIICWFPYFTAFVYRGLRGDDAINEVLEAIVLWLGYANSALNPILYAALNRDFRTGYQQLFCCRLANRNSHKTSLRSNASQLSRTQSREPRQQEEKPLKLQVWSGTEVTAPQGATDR

[11] = target: Voltage-dependent L-type calcium channel subunit alpha-1C (Rattus norvegicus, UniProt P22002)
Chain of Voltage-dependent L-type calcium channel subunit alpha-1C (P22002 whole entry): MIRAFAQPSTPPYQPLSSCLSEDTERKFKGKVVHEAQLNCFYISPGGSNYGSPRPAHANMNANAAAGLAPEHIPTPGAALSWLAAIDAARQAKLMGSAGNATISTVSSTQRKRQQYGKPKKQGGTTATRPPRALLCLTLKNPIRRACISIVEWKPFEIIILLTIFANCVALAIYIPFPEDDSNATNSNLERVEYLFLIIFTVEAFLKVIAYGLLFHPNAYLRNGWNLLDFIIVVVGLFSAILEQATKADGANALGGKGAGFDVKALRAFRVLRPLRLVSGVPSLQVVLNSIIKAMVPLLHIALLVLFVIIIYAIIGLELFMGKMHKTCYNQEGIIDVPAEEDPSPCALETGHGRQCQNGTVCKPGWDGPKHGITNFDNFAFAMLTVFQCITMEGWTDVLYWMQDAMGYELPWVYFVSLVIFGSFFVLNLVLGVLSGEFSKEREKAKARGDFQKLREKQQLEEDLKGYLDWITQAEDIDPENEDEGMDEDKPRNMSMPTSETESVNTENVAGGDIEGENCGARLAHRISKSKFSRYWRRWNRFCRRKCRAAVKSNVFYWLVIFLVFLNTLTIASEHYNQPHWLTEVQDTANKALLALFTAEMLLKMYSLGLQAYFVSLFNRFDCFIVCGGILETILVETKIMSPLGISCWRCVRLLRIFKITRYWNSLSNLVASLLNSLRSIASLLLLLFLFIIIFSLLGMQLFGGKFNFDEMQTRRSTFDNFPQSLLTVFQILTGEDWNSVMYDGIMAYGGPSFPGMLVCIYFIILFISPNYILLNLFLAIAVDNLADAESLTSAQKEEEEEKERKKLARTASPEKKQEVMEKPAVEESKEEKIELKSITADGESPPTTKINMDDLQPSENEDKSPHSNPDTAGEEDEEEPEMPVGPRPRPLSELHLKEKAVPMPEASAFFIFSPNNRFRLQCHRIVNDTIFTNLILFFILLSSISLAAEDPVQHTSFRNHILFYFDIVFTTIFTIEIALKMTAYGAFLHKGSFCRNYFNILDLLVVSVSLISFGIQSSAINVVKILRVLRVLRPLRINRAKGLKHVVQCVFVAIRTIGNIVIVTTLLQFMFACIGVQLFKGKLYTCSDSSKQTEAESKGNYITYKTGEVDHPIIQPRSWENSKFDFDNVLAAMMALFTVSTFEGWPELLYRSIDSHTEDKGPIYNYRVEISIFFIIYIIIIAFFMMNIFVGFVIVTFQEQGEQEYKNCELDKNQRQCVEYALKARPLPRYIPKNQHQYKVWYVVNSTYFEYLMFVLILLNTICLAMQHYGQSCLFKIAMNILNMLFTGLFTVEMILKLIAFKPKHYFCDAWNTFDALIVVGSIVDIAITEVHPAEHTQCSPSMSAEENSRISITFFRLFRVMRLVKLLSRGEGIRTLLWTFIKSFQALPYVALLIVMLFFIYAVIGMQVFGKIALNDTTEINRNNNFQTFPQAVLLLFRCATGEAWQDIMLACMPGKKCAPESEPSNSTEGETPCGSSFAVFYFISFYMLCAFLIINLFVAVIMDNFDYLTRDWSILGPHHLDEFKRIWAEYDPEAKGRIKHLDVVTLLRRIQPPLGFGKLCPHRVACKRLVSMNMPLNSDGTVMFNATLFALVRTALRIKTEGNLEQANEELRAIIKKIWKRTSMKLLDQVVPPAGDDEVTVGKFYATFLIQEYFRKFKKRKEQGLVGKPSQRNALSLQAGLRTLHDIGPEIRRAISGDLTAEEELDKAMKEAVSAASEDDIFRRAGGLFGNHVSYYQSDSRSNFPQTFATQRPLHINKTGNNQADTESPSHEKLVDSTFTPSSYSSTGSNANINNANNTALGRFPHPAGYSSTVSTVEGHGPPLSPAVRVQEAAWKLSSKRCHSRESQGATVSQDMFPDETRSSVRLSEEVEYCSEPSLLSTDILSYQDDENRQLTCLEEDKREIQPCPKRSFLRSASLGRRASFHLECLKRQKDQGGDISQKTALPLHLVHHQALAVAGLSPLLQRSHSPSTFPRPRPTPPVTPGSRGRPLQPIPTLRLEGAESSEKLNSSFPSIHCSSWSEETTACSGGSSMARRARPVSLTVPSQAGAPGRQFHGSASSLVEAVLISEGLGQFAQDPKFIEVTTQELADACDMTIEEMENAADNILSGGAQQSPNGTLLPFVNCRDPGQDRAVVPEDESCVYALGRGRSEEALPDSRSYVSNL

Measured: Ki

N[C@@H](CCS(=O)(=O)O)C(=O)O (racemic)
not listed: Histamine H4 receptor | [10] | Cannabinoid receptor 1 | Histamine H2 receptor | [11]
> 10 µM: all other assays above

N[C@@H](CCS)C(=O)O (racemic) [CAS_778]
> 10 µM: all assays above

NC(CS(=O)O)C(=O)O (configuration not stated) [CAS_109]
> 10 µM: all assays above

NC(CSSCC(N)C(=O)O)C(=O)O (configuration not stated) [CAS_595]
> 10 µM: all assays above

N[C@@H](CS)C(=O)O [CAS_5862]
> 10 µM: all assays above

N[C@@H]1CCSC1=O [D-homocysteine thiolactone]
not listed: Histamine H1 receptor | [7] | [9]
> 10 µM: all other assays above

N[C@H](CS(=O)(=O)O)C(=O)O [L-cysteic acid]
not listed: [7]
> 10 µM: all other assays above

N[C@@H](CCS(=O)O)C(=O)O [L-homocysteine sulfinic acid]
not listed: [3]
> 10 µM: all other assays above

N[C@H]1CCSC1=O [NSC_134505]
not listed: Histamine H1 receptor | [9]
> 10 µM: all other assays above
